# Reference: ChEMBL document CHEMBL1134270, “Optimization of 4-phenylamino-3-quinolinecarbonitriles as potent inhibitors of Src kinase activity” (J Med Chem, 2001)
# Tests used:
# [1] = target: Proto-oncogene tyrosine-protein kinase Src (Homo sapiens, UniProt P12931); assay: Inhibition against Src kinase
# [2] = species on record: Rattus norvegicus; assay: Ability to inhibit the proliferation of c-Src transformed rat fibroblasts growing in suspension; assay type: functional
# [3] = plasma concentration of compound at one hour after the of intraperitoneal administration of 50 mg/kg; assay type: ADME, organism-based; set-up: dose 50 mg/kg, route intraperitoneal; settings: ip
# [4] = plasma concentration of compound at four hour after the of intraperitoneal administration of 50 mg/kg; assay type: ADME, organism-based; set-up: dose 50 mg/kg, route intraperitoneal; settings: ip
# [5] = system: HT-29; assay: Inhibition of HT-29 cell monolayer proliferation at 5 uM; assay type: functional, cell-based; settings: Homo sapiens
# [6] = target: Platelet-derived growth factor receptor (PDGFr) (Rattus norvegicus, UniProt P20786+Q05030); assay: Inhibition of PDGF receptor transfected rat1A cell proliferation; assay type: functional
# [7] = plasma concentration of compound at four hours after the of intraperitoneal administration of 50 mg/kg; assay type: ADME, organism-based; set-up: dose 50 mg/kg, route intraperitoneal; settings: ip
# Sequence of Proto-oncogene tyrosine-protein kinase Src (P12931 2-536 limits assumed): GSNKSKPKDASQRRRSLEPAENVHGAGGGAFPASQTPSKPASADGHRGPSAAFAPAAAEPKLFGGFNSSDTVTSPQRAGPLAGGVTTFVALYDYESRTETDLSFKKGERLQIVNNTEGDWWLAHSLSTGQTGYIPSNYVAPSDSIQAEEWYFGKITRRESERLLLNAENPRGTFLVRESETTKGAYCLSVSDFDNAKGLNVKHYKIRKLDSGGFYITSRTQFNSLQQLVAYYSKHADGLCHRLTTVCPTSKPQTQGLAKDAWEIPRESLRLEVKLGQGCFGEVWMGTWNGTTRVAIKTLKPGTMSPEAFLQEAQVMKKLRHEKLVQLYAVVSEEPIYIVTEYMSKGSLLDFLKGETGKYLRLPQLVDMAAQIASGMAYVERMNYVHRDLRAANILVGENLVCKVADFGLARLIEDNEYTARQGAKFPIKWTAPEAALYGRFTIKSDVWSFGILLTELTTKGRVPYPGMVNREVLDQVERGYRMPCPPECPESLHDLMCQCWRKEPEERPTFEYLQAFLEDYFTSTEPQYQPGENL
IC50 [1] [nM],Structure (SMILES),IC50 [2] [nM],further results
66,COc1cc(Nc2c(C#N)cnc3cc(OC)c(OC)cc23)c(F)cc1Cl,–,–
190,COc1cc2ncc(C#N)c(Nc3cc(O)c(Cl)cc3Cl)c2cc1OC,–,–
–,COc1cc2c(Nc3ccc(Cl)cc3Cl)c(C#N)cnc2cc1OCCCN1CCOCC1,940,–
4.6,COc1cc(Nc2c(C#N)cnc3cc(OC)c(OC)cc23)c(C)cc1C,–,–
3,COc1cc(Nc2c(C#N)cnc3cc(OCCCNCCN4CCOCC4)c(OC)cc23)c(Cl)cc1Cl,1200,–
1.2,COc1cc(Nc2c(C#N)cnc3cc(OCCCN4CCCCC4)c(OC)cc23)c(Cl)cc1Cl,150,–
2.1,COc1cc(Nc2c(C#N)cnc3cc(OCCCn4ccnc4)c(OC)cc23)c(Cl)cc1Cl,1400,–
1.7,COc1cc(Nc2c(C#N)cnc3cc(OCCCN4CCOCC4)c(OC)cc23)c(C)cc1C,160,–
2.5,COc1cc(Nc2c(C#N)cnc3cc(OCCCCCN4CCOCC4)c(OC)cc23)c(Cl)cc1Cl,320,–
2.9,COc1cc(Nc2c(C#N)cnc3cc(OC)c(OC)cc23)c(Cl)cc1C,–,–
–,CCN1CCN(CCCOc2cc3ncc(C#N)c(Nc4cc(OC)c(Cl)cc4Cl)c3cc2OC)CC1,130,–
3,COc1cc(Nc2c(C#N)cnc3cc(OC)c(OC)cc23)c(Br)cc1Cl,–,–
1200,CCOc1cc(Nc2c(C#N)cnc3cc(OC)c(OC)cc23)c(Cl)cc1Cl,–,–
10,COc1ccc(Cl)c(Nc2c(C#N)cnc3cc(OC)c(OC)cc23)c1,–,–
1.4,COc1cc(Nc2c(C#N)cnc3cc(OCCCN4CCCN(C)CC4)c(OC)cc23)c(Cl)cc1Cl,350,–
0.76,COc1cc(Nc2c(C#N)cnc3cc(OCCCN4CCN(CCO)CC4)c(OC)cc23)c(Cl)cc1Cl,610,–
1.6,COc1ccc(Cl)c(Nc2c(C#N)cnc3cc(OCCCN4CCOCC4)c(OC)cc23)c1,150,–
0.64,COc1cc(Nc2c(C#N)cnc3cc(OCCCN4CCC(O)CC4)c(OC)cc23)c(Cl)cc1Cl,840,–
81,COc1cc(Nc2ccnc3cc(OC)c(OC)cc23)c(Cl)cc1Cl,–,–
1.1,COc1cc(Nc2c(C#N)cnc3cc(OCCCN4CCNCC4)c(OC)cc23)c(Cl)cc1Cl,1700,–

IC50 [1] [nM],Structure (SMILES),IC50 [2] [nM],further results
28,COc1cc(Nc2c(C#N)cnc3cc(OC)c(OCCCN4CCOCC4)cc23)c(Cl)cc1Cl,1200,–
4.3,COc1cc(Nc2c(C#N)cnc3cc(OC)c(OC)cc23)c(Cl)cc1Cl,–,–
0.95,COc1cc(Nc2c(C#N)cnc3cc(OCCCN4CCOCC4)c(OC)cc23)c(Br)cc1Cl,71,–
120,COc1cc(Nc2c(C#N)cnc3cc(OC)c(OC)cc23)ccc1Cl,–,–
2.3,COc1cc(Nc2c(C#N)cnc3cc(OCCN4CCOCC4)c(OC)cc23)c(Cl)cc1Cl,190,–
1.9,COc1cc(Nc2c(C#N)cnc3cc(OCCCn4ccnn4)c(OC)cc23)c(Cl)cc1Cl,920,concentration at 1 h [3]: 1300 ng/mL; concentration at 4 h [4]: 300 ng/mL
390,COc1cc(Nc2ncnc3cc(OC)c(OC)cc23)c(Cl)cc1Cl,–,–
–,COc1cc(Nc2c(C#N)cnc3cc(OCCCN4CCN(C)CC4)c(OC)cc23)c(Cl)cc1Cl [BOSUTINIB],100,concentration at 1 h [3]: 3000 ng/mL; concentration at 4 h [4]: 900 ng/mL; IC50 [5]: 5 µM; IC50 [6]: 4 µM
9.3,COc1cc(Nc2c(C#N)cnc3cc(OCCCn4nccn4)c(OC)cc23)c(Cl)cc1Cl,1900,–
1.4,COc1cc(Nc2c(C#N)cnc3cc(OCCCN4CC(C)N(C)C(C)C4)c(OC)cc23)c(Cl)cc1Cl (stereo not drawn),220,–
> 5000,CCOc1cc(Nc2c(C#N)cnc3cc(OC)c(OC)cc23)c(Cl)cc1C,–,–
1.2,COc1cc(Nc2c(C#N)cnc3cc(OCCCN4CCOCC4)c(OC)cc23)c(C)cc1Cl,150,–
1.1,COc1cc(Nc2c(C#N)cnc3cc(OCCCN4CCOCC4)c(OC)cc23)c(Cl)cc1C,100,–
1.3,COc1cc(Nc2c(C#N)cnc3cc(OCCCCN4CCOCC4)c(OC)cc23)c(Cl)cc1Cl,330,–
4,COc1cc(Nc2c(C#N)cnc3cc(OC)c(OC)cc23)c(C)cc1Cl,–,–
> 5000,CCCOc1cc(Nc2c(C#N)cnc3cc(OC)c(OC)cc23)c(Cl)cc1Cl,–,–
0.8,COc1cc(Nc2c(C#N)cnc3cc(OCCCN4CCOCC4)c(OC)cc23)c(Cl)cc1Cl,140,concentration at 4 h [7]: 100 ng/mL; concentration at 1 h [3]: 100 ng/mL
2.3,COc1cc(Nc2c(C#N)cnc3cc(OCCCN(C)CCN(C)C)c(OC)cc23)c(Cl)cc1Cl,650,–
–,CCCN1CCN(CCCOc2cc3ncc(C#N)c(Nc4cc(OC)c(Cl)cc4Cl)c3cc2OC)CC1,160,–
